Results taken from US20070224674A1, “Selective Enrichiment of Microorganisms for Desired Metabolic Properties” (COMMONWEALTH SCIENTIFIC AND INDUSTRIAL RESEARCH OR, priority 2003, published 2007).

Columns and labels:
[1] = test system: 1,3-propanediol-degrading microbial population (activated sludge); experiment: Enrichment of activated sludge on 1,3-propanediol, growth from BOD; assay type: cell-based
Experimental: Isolation of 1,3-propanediol-degrading microorganisms was used to test the feedback loop between feed flow rate and OUR. The feed medium was a defined medium designated 461S (Appendix I) which contained 1.0 g l^−1 1,3-propanediol and the initial flow rate was 43.5 ml h^−1. The operating temperature was 30° C. and pH 7.0. The medium was inoculated with ˜700 ml of activated sludge. The feed flow rate was increased by 20 ml h^−1 if the BOD remained constant for four vessel volumes. After an initial peak in the BOD, which was due to 1,3-propanediol being in excess, the BOD remained constant over a range of flow rates. […] This observation was expected because the inferred μmax of the population from the initial peak in BOD at the start of the experiment was ˜0.25 h^−1 (a doubling time of 2.8 hours). […] could be achieved with any microbial population that is established in the culture because there is a good probability that mutants which can grow at a higher rate will be selected at high feed flow rates.

Isolate 2A = experiment: 1-methyl-2-pyrrolidinone degradation in liquid batch culture; assay type: cell-based; conditions: for Residual 1-methyl-2-pyrrolidinone concentration: 1.0 g l^−1 added
Experimental: (§1) The ability of the pure isolates to grow on 1-methyl-2-pyrrolidinone as the sole source of carbon in liquid culture was also evaluated (Table 3). The cultures were grown in 50 ml screw-capped plastic tubes that contained 10 ml of defined medium and 1.0 g l^−1 1-methyl-2-pyrrolidinone. To ensure each culture was inoculated with a consistent number of cells, 10 ml of medium was seeded with 100 μl of a single colony that had been resuspended in 1 ml of DM. The cultures were incubated at 30° C. shaking at 190 rpm. A single 10 ml culture was harvested by centrifugation at each time point and the supernatant kept for determination of the 1-methyl-2-pyrrolidinone concentration. The 1-methyl-2-pyrrolidinone concentrations were estimated using gas chromatography

Isolate 2B = experiment: as above; assay type: cell-based; conditions: for Residual 1-methyl-2-pyrrolidinone concentration: 1.0 g l^−1 added
Experimental: as §1

[2] = test system: microorganisms from activated sludge; experiment: Enrichment of activated sludge on 1-methyl-2-pyrrolidinone, growth from BOD; assay type: cell-based; conditions: 30° C., pH 7.0
Experimental: Fresh activated sludge sourced from a wastewater treatment facility was used as the source of microorganisms for enrichment of 1-methyl-2-pyrrolidinone-utilising microbes. […] The enrichment process was performed at 30° C. and pH 7.0 (the pH was maintained at 7.0 by the automatic addition of a potassium hydroxide or hydrochloric acid solution as the alkali and acid, respectively). The feed flow rate was 60 ml h^−1.
After the addition of the activated sludge to a vessel the BOD was high (greater than 500 mg l^−1). […] After 2 ml of 1-methyl-2-pyrrolidinone was added to the vessel (Arrow A; FIG. 8) a rapid rise in BOD was observed indicating exponential growth (FIG. 8). […] Growth is exponential between 1220 and 1460 minutes and μmax can therefore be calculated as 0.52 h^−1, which corresponds to a doubling time of 1.34 hours. The rapid decline in BOD (Arrow B, FIG. 8) was due to the oxygen consumption of the microbial population being greater than the amount of oxygen supplied to the culture.

[3] = stated in words; cited from earlier work
E. coli = experiment: Growth on glucose and benzyl alcohol in defined medium, batch culture; assay type: cell-based, Escherichia coli BL21DE3
Experimental: (§2) For these control experiments a steady state culture of an Escherichia coli BL21DE3 which was supplied by Novagen (Novagen Inc., Madison, Wis., USA) and was expected to grow on glucose only was used. The culture was established using 5 ml of an E. coli culture taken from a 100 ml shake flask culture which had been grown for 17 hours shaking at 200 rpm and 30° C. in defined medium with 1.0 g l^−1 glucose as the carbon source. Although the feed contained another substrate (benzyl alcohol), no growth on this substrate was expected because this microbial population was known to be unable to use this carbon source for growth. When steady state had been established, 10 mL of a 100 mL shake flask culture of Pseudomonas putida F1 was added. The P. putida F1 culture had been grown at 30° C. for 17 hours, with shaking at 200 rpm, in defined medium with 1.0 g l^−1 glucose as the carbon source. The P. putida F1 was supplied by the American Type Culture Collection (ATCC) and was expected to grow on benzyl alcohol and/or glucose. The OUR was expected to change as a result of the increased microbial activity after the addition of P. putida.
(§3) The success of this control experiment was dependent upon the ability of E. coli to grow on glucose in DM and grow in DM in the presence of benzyl alcohol (i.e. benzyl alcohol is not toxic to E. coli). Also of key importance was the inability of E. coli to grow on benzyl alcohol. […] Although P. putida is well known for its ability to grow on a wide range of aromatic substrates (Wackett, & Hershberger, 2001), growth on benzyl alcohol has not been reported. The optical density at inoculation was calculated (based upon the optical density on the inocula) as 0.021 (E. coli) and 0.026 (P. putida). The cultures were incubated shaking at 200 rpm and 30° C. The optical density was measured at 600 nm after incubation for 23.5 and 75 hours.

P. putida = experiment: as above; assay type: cell-based, Pseudomonas putida F1
Experimental: as §2, §3

[4] = test system: E. coli and P. putida continuous culture; experiment: Continuous culture population shift, residual substrate by gas chromatography; assay type: cell-based, Escherichia coli BL21DE3, Pseudomonas putida F1; conditions: when BOD stabilised after addition of P. putida; feed 1.0 g l^−1 benzyl alcohol and 0.5 g l^−1 glucose, 30 ml h^−1
Experimental: Based on the BOD it was clear that steady state had been attained (it is generally assumed that steady state has been established after turnover of at least three vessel volumes which, in this example would occur after 37.5 hours). After 125.7 hours (equivalent to 10 vessel volumes) of continuous operation, P. putida was added to the culture. Initially, there was no change in the BOD so to ensure P. putida was not being washed out of the vessel the feed flow rate was reduced from 60 ml h^−1 to 30 ml h^−1. […] This observation was confirmed by measuring the residual benzyl alcohol in the culture supernatant, which had started to decrease. As the P. putida population developed the BOD increased, peaking initially at nearly 1400 mg l^−1 before declining to 1050 mg l^−1 after which a second peak in the BOD was observed. […] After the second BOD peak, the BOD stabilised at 1040 mg l^−1 which was the expected BOD for a feed containing 0.5 g l^−1 glucose and 1.0 g l^−1 benzyl alcohol (see calculation below).
The feed consisting of DM containing 0.5 g l^−1 glucose and 1.0 g l^−1 benzyl alcohol was fed into a vessel at 30° C. and pH 7. The feed flow rate was initially 60 ml h^−1. […] At the same time that the BOD stabilised the measured residual benzyl alcohol concentration was zero. […]

Isolate 1B = experiment: Dodecane degradation in liquid batch culture; assay type: cell-based; conditions: for Residual dodecane concentration: 0.75 g l^−1 added
Experimental: (§4) The ability of the pure isolates to grow on dodecane as the sole source of carbon in liquid culture was also evaluated and is shown in Table 5. The cultures were grown in 50 ml screw-capped plastic tubes that contained 10 ml of defined medium and 0.75 g l^−1 dodecane. To ensure each culture was inoculated with a consistent number of cells, 10 ml of medium was inoculated with 100 μl of a single colony that had been resuspended in 1 ml of DM. The cultures were incubated at 30° C. shaking at 190 rpm. Residual dodecane was extracted by the addition of 20 ml of hexane to a single 10 ml culture at each time point. The tube was shaken vigorously for one minute and after phase separation, the upper layer was kept for determination of the dodecane concentration. The dodecane concentrations were estimated using gas chromatography.

Isolate 1C = experiment: Dodecane degradation in liquid batch culture; assay type: cell-based; conditions: for Residual dodecane concentration: 0.75 g l^−1 added
Experimental: as §4

Isolate 1D = experiment: Dodecane degradation in liquid batch culture; assay type: cell-based; conditions: for Residual dodecane concentration: 0.75 g l^−1 added
Experimental: as §4

[5] = benzyl alcohol 1.0 g l^−1 only carbon source, 23.5 hours
[6] = benzyl alcohol 1.0 g l^−1 only carbon source, 75 hours
[7] = benzyl alcohol 1.0 g l^−1 with glucose 0.1 g l^−1, 23.5 hours
[8] = benzyl alcohol 1.0 g l^−1 with glucose 0.1 g l^−1, 75 hours
[9] = glucose 0.1 g l^−1 only carbon source, 23.5 hours incubation, 30° C.
[10] = glucose 0.1 g l^−1 only carbon source, 75 hours incubation, 30° C.
[11] = batch culture, over a 168 hours period

OCCCO [1,3-propanediol]
Doubling time ([1]; corresponds to inferred μmax): 2.8 h
Inferred μmax of the population ([1]; from the initial peak in BOD, 1.0 g l^−1 in feed, 30° C., pH 7.0): ~0.25 h⁻¹

CN1CCCC1=O [1-methyl-2-pyrrolidinone]
Residual 1-methyl-2-pyrrolidinone concentration (Isolate 2A; 24 h after inoculation): NDa (Not detected (limit of detection · 20 mg l^−1))
Residual 1-methyl-2-pyrrolidinone concentration (Isolate 2A; 48 h after inoculation): ND (Not detected (limit of detection · 20 mg l^−1))
Residual 1-methyl-2-pyrrolidinone concentration (Isolate 2A; 72 h after inoculation): ND (Not detected (limit of detection · 20 mg l^−1))
Residual 1-methyl-2-pyrrolidinone concentration (Isolate 2A; 96 h after inoculation): ND (Not detected (limit of detection · 20 mg l^−1))
Residual 1-methyl-2-pyrrolidinone concentration (Isolate 2A; 168 h after inoculation): ND (Not detected (limit of detection · 20 mg l^−1))
Time to completely degrade 1.0 g l^−1 1-methyl-2-pyrrolidinone (Isolate 2A; batch culture): ≤ 24 h
Residual 1-methyl-2-pyrrolidinone concentration (Isolate 2B; 24 h after inoculation): ND (Not detected (limit of detection · 20 mg l^−1))
Residual 1-methyl-2-pyrrolidinone concentration (Isolate 2B; 48 h after inoculation): ND (Not detected (limit of detection · 20 mg l^−1))
Residual 1-methyl-2-pyrrolidinone concentration (Isolate 2B; 72 h after inoculation): ND (Not detected (limit of detection · 20 mg l^−1))
Residual 1-methyl-2-pyrrolidinone concentration (Isolate 2B; 96 h after inoculation): ND (Not detected (limit of detection · 20 mg l^−1))
Residual 1-methyl-2-pyrrolidinone concentration (Isolate 2B; 168 h after inoculation): ND (Not detected (limit of detection · 20 mg l^−1))
Time to completely degrade 1.0 g l^−1 1-methyl-2-pyrrolidinone (Isolate 2B; batch culture): ≤ 24 h
μmax of the population growing on the substrate ([2]; calculated from exponential BOD rise between 1220 and 1460 minutes): 0.52 h⁻¹
Doubling time ([2]; corresponds to μmax): 1.34 h
Solubility in water [3]: soluble in water

OCc1ccccc1 [Benzyl alcohol, benzyl alcohol]
Optical density at 600 nm (E. coli; [5]): 0.027
Optical density at 600 nm (E. coli; [6]): 0.024
Optical density at 600 nm (E. coli; [7]): 0.102
Optical density at 600 nm (E. coli; [8]): 0.097
Optical density at 600 nm (P. putida; [5]): 0.021
Optical density at 600 nm (P. putida; [6]): 0.417
Optical density at 600 nm (P. putida; [7]): 0.042
Optical density at 600 nm (P. putida; [8]): 0.353
Residual benzyl alcohol concentration [4]: zero

O=C[C@H](O)[C@@H](O)[C@H](O)[C@H](O)CO [Glucose, glucose]
Optical density at 600 nm (E. coli; [9]): 0.116
Optical density at 600 nm (E. coli; [10]): 0.102
Optical density at 600 nm (P. putida; [9]): 0.170
Optical density at 600 nm (P. putida; [10]): 0.138

CCCCCCCCCCCC [dodecane]
Residual dodecane concentration (Isolate 1B; 24 h after inoculation): 920 mg/L
Residual dodecane concentration (Isolate 1B; 48 h after inoculation): 160 mg/L
Residual dodecane concentration (Isolate 1B; 72 h after inoculation): 420 mg/L
Residual dodecane concentration (Isolate 1B; 96 h after inoculation): 270 mg/L
Residual dodecane concentration (Isolate 1B; 168 h after inoculation): 290 mg/L
Dodecane added to the culture that was used (Isolate 1B; [11]): 50 to 60%
Residual dodecane concentration (Isolate 1C; 24 h after inoculation): 630 mg/L
Residual dodecane concentration (Isolate 1C; 48 h after inoculation): 620 mg/L
Residual dodecane concentration (Isolate 1C; 72 h after inoculation): 440 mg/L
Residual dodecane concentration (Isolate 1C; 96 h after inoculation): 440 mg/L
Residual dodecane concentration (Isolate 1C; 168 h after inoculation): 280 mg/L
Dodecane added to the culture that was used (Isolate 1C; [11]): 50 to 60%
Residual dodecane concentration (Isolate 1D; 24 h after inoculation): 1080 mg/L
Residual dodecane concentration (Isolate 1D; 48 h after inoculation): 920 mg/L
Residual dodecane concentration (Isolate 1D; 72 h after inoculation): 740 mg/L
Residual dodecane concentration (Isolate 1D; 96 h after inoculation): 410 mg/L
Residual dodecane concentration (Isolate 1D; 168 h after inoculation): 310 mg/L
Dodecane added to the culture that was used (Isolate 1D; [11]): 50 to 60%
Solubility in water [3]: practically insoluble in water
